In brackets after ≈: the same amount, converted by molar mass.
Assays:
[1] = test system: S. aureus ST398; assay: FDAA metabolic labeling susceptibility test (Cy5-DAA probe, flow cytometry); format: cell-based; details: Staphylococcus aureus; S. aureus ST398; Cy5-DAA probe, 2 hours; read-out: MIC, FDAA
Procedure: (§1) Take the colony to be tested that has been cultured overnight on the plate and fully mix it in normal saline to make a uniform bacterial solution. Dilute it into Cation-Adjusted Mueller Hinton Broth (CAMHB) culture medium to make a bacterial solution with OD600=0.05. • 2. Add 45 μl antibiotic solutions of different concentrations to 96-well plates (see Table 1 for antibiotic concentration gradient settings). • 3. Add 50 μl of the bacterial solution prepared in step 1 to the 96-well plate and mix well. • 4. Add 5 μl of 10 mM Cy5-DAA probe (final concentration 0.15 mM, see FIG. 1 for its structure) into each well, mix well, and cultivate in dark for 2 hours. • 5. Add 200 μl After PBS solution is diluted, the fluorescence intensity of each sample is detected by flow cytometry. The flow detection results are shown in FIG. 4-5, showing the curve of the change of antibiotic concentration gradient and fluorescence intensity. The MIC (minimum inhibitory concentration) can be obtained by referring to this curve.

[2] = test system: S. aureus ST59; assay: as above; format: cell-based; details: Staphylococcus aureus; S. aureus ST59; Cy5-DAA probe, 2 hours; read-out: MIC, FDAA
Procedure: as §1

[3] = test system: S. aureus ST5; assay: as above; format: cell-based; details: Staphylococcus aureus; S. aureus ST5; Cy5-DAA probe, 2 hours; read-out: MIC, FDAA
Procedure: as §1

[4] = test system: S. aureus ST5; assay: Vitek 2 drug sensitivity test; format: cell-based, Staphylococcus aureus; on Sensibility: key: S: Drug sensitive; R: Drug resistance
[5] = test system: S. aureus ST59; assay: Vitek 2 drug sensitivity test; format: cell-based, Staphylococcus aureus; on Sensibility: key: S: Drug sensitive; R: Drug resistance
[6] = test system: S. aureus ST398; assay: Vitek 2 drug sensitivity test; format: cell-based, Staphylococcus aureus; on Sensibility: key: S: Drug sensitive; R: Drug resistance
[7] = test system: E. faecium Ef26; assay: BMD susceptibility test; format: cell-based, Enterococcus faecium; details: unit assumed
[8] = test system: E. faecium Ef26; assay: FaAST (FDAA metabolic labeling method); format: cell-based, Enterococcus faecium; details: unit assumed
Procedure: as §1
(§2) Bacteria with antibiotic resistance are shown in bold in the following table.

[9] = test system: E. faecalis ATCC29212; assay: BMD susceptibility test; format: cell-based, Enterococcus faecalis; details: unit assumed
[10] = test system: E. faecalis ATCC29212; assay: FaAST (FDAA metabolic labeling method); format: cell-based, Enterococcus faecalis; details: unit assumed
Procedure: as §1, §2

[11] = test system: E. faecalis ATCC29212; details: cited from earlier work

Compound	MIC [1] [µg/mL]	MIC [2] [µg/mL]	MIC [3] [µg/mL]	Sensibility [4]	MIC ([4]; Staphylococcus aureus) [µg/mL]	Sensibility [5]	MIC ([5]; Staphylococcus aureus) [µg/mL]	Sensibility [6]	MIC ([6]; Staphylococcus aureus) [µg/mL]	BMD (MIC) [7] [µg/mL]	FaAST (MIC) [8] [µg/mL]	BMD (MIC) [9] [µg/mL]	FaAST (MIC) [10] [µg/mL]	CLSI QC range [11]
Cc1onc(-c2ccccc2)c1C(=O)N[C@@H]1C(=O)N2[C@@H]1SC(C)(C)[C@@H]2C(=O)O [OX, oxacillin]	0.25 (≈ 0.623 µM)	32 (≈ 79.7 µM)	≥ 1020	R	256 (≈ 638 µM)	R	16 (≈ 39.9 µM)	S	≤ 0.25					
CC1(C)S[C@@H]2[C@H](NC(=O)Cc3ccccc3)C(=O)N2[C@H]1C(=O)O [Penicillin G, penicillin G]										64	32	2	4	1-4

From patent US20240240224A1, “FLUORESCENT D-TYPE AMINO ACID METABOLISM MARKER-BASED METHOD FOR DETECTING ANTIBACTERIAL DRUG SENSITIVITY TEST” (priority 2020, published 2024)
